Measurements: ChEMBL document CHEMBL6078630, “Design, synthesis, and bioactivity investigation of novel cyclic lipopeptide antibiotics targeting top-priority multidrug-resistant gram-negative bacteria” (Eur J Med Chem, 2024)
Converted amounts (≈) assume the structure as drawn. The source made the active and inactive calls. The rule behind the calls is not given here. Bridge positions count the residues as written; N and C are the ends. Square brackets hold non-standard residues; d marks the D form. Peptide text beside a SMILES is read from it. * marks the point of attachment. Heptanoyl(6-Me) = CC(C)CCCCC(=O)*; Dab = NCC[C@H](N)C(=O)O; Dap = NC[C@H](N)C(=O)O

Assays:
[1] = MRT in male Sprague-Dawley rat at 3 mg/kg, iv measured after 24 hrs by LC-MS/MS analysis; format: ADME, organism-based; details: in vivo
Pseudomonas aeruginosa [2] = assay: Antibacterial activity against carbapenem-resistant Pseudomonas aeruginosa clinical isolate ets83 assessed as inhibition of bacterial growth incubated for 24 hrs by CLSI protocol based broth microdilution method; format: functional
[3] = Nephrotoxicity against Sprague-Dawley rat assessed as increase in CRE level at 4 mg/kg, iv administered for 7 days by fully automated biochemistry analyzer XR200PLUS; format: toxicity, organism-based; details: in vivo, 168 h, time 7 day
Klebsiella pneumoniae [4] = assay: Antibacterial activity against carbapenem-resistant Klebsiella pneumoniae clinical isolate ets75 assessed as inhibition of bacterial growth incubated for 24 hrs by CLSI protocol based broth microdilution method; format: functional
Pseudomonas aeruginosa [5] = assay: Antibacterial activity against carbapenem-resistant Pseudomonas aeruginosa clinical isolate 19-3 assessed as inhibition of bacterial growth incubated for 16 to 20 hrs by CLSI protocol based broth microdilution method; format: functional; details: time 16-20 hrs
Acinetobacter baumannii [6] = assay: Antibacterial activity against carbapenem-resistant Acinetobacter baumannii clinical isolate ets171 assessed as inhibition of bacterial growth incubated for 24 hrs by CLSI protocol based broth microdilution method; format: functional
Pseudomonas aeruginosa [7] = assay: Potentiation of rifampicin induced antibacterial activity against Pseudomonas aeruginosa ATCC 27853 assessed as rifampicin MIC at 0.004 microg/ml incubated 24 hrs by cation adjusted Mueller-Hinton broth based method; format: functional; details: dose 0.004 µg/ml
Pseudomonas aeruginosa [8] = assay: Antibacterial activity against carbapenem-resistant Pseudomonas aeruginosa clinical isolate ets38 assessed as inhibition of bacterial growth incubated for 24 hrs by CLSI protocol based broth microdilution method; format: functional
Escherichia coli [9] = assay: Antibacterial activity against carbapenem-resistant Escherichia coli clinical isolate 231016w014 assessed as inhibition of bacterial growth incubated for 24 hrs by CLSI protocol based broth microdilution method; format: functional
Klebsiella pneumoniae [10] = assay: Antibacterial activity against carbapenem-resistant Klebsiella pneumoniae clinical isolate ets80 assessed as inhibition of bacterial growth incubated for 24 hrs by CLSI protocol based broth microdilution method; format: functional
Pseudomonas aeruginosa [11] = assay: Antibacterial activity against carbapenem-resistant Pseudomonas aeruginosa clinical isolate ets5 assessed as inhibition of bacterial growth incubated for 24 hrs by CLSI protocol based broth microdilution method; format: functional
Pseudomonas aeruginosa [12] = assay: Antibacterial activity against Pseudomonas aeruginosa ATCC 27853 infected in ICR mouse model administered intravenously with compound at 1 and 6 hrs post-infection and measured after 7 days; format: functional; details: ATCC 27853, 168 h, route iv, time 7 day
Pseudomonas aeruginosa [13] = assay: Antibacterial activity against carbapenem-resistant Pseudomonas aeruginosa clinical isolate ets22 assessed as inhibition of bacterial growth incubated for 24 hrs by CLSI protocol based broth microdilution method; format: functional
[14] = C0 in male Sprague-Dawley rat at 3 mg/kg, iv measured after 24 hrs by LC-MS/MS analysis; format: ADME, organism-based; details: in vivo
Pseudomonas aeruginosa [15] = assay: Antibacterial activity against carbapenem-resistant Pseudomonas aeruginosa clinical isolate ets6 assessed as inhibition of bacterial growth incubated for 24 hrs by CLSI protocol based broth microdilution method; format: functional
Klebsiella pneumoniae [16] = assay: Antibacterial activity against carbapenem-resistant Klebsiella pneumoniae ATCC BAA-1705 infected in ICR mouse model administered intravenously with compound at 1 and 6 hrs post-infection and measured after 7 days; format: functional; details: ATCC BAA-1705, 168 h, route iv, time 7 day
Escherichia coli [17] = assay: Antibacterial activity against Escherichia coli ATCC BAA-2523 infected in ICR mouse model assessed as survival rate at 4 mg/kg, iv administered at 1 and 6 hrs post-infection and measured after 7 days relative to control; format: functional; details: ATCC BAA-2523, 168 h, time 7 day
Pseudomonas aeruginosa [18] = assay: Potentiation of rifampicin induced antibacterial activity against Pseudomonas aeruginosa ATCC 27853 assessed as rifampicin MIC at 0.03 microg/ml incubated 24 hrs by cation adjusted Mueller-Hinton broth based method; format: functional; details: dose 0.03 µg/ml
Escherichia coli [19] = assay: Antibacterial activity against Escherichia coli ATCC BAA-2523 assessed as inhibition of bacterial growth incubated for 16 to 20 hrs by CLSI protocol based broth microdilution method; format: functional; details: time 16-20 hrs
Pseudomonas aeruginosa [20] = assay: Antibacterial activity against carbapenem-resistant Pseudomonas aeruginosa clinical isolate ets104 assessed as inhibition of bacterial growth incubated for 24 hrs by CLSI protocol based broth microdilution method; format: functional
Pseudomonas aeruginosa [21] = assay: Antibacterial activity against Pseudomonas aeruginosa ATCC 27853 assessed as bacterial concentration at 4 to 8 times of MIC measured after 1 hrs by time-kill kinetics assay; format: functional, organism-based
Klebsiella pneumoniae [22] = assay: Antibacterial activity against carbapenem-resistant Klebsiella pneumoniae clinical isolate ets77 assessed as inhibition of bacterial growth incubated for 24 hrs by CLSI protocol based broth microdilution method; format: functional
Acinetobacter baumannii [23] = assay: Antibacterial activity against carbapenem-resistant Acinetobacter baumannii clinical isolate ets30 assessed as inhibition of bacterial growth incubated for 24 hrs by CLSI protocol based broth microdilution method; format: functional
Escherichia coli [24] = assay: Antibacterial activity against carbapenem-resistant Escherichia coli clinical isolate 231112E006B assessed as inhibition of bacterial growth incubated for 24 hrs by CLSI protocol based broth microdilution method; format: functional
Klebsiella pneumoniae [25] = assay: Antibacterial activity against carbapenem-resistant Klebsiella pneumoniae clinical isolate ets45 assessed as inhibition of bacterial growth incubated for 24 hrs by CLSI protocol based broth microdilution method; format: functional
Pseudomonas aeruginosa [26] = assay: Antibacterial activity against carbapenem-resistant Pseudomonas aeruginosa clinical isolate ets15 assessed as inhibition of bacterial growth incubated for 24 hrs by CLSI protocol based broth microdilution method; format: functional
Klebsiella pneumoniae [27] = assay: Antibacterial activity against carbapenem-resistant Klebsiella pneumoniae ATCC BAA-1705 assessed as inhibition of bacterial growth incubated for 16 to 20 hrs by CLSI protocol based broth microdilution method; format: functional; details: time 16-20 hrs
Klebsiella pneumoniae [28] = assay: Antibacterial activity against carbapenem-resistant Klebsiella pneumoniae clinical isolate ets26 assessed as inhibition of bacterial growth incubated for 24 hrs by CLSI protocol based broth microdilution method; format: functional
Pseudomonas aeruginosa [29] = assay: Antibacterial activity against Pseudomonas aeruginosa ATCC 27853 assessed as decrease in bacterial concentration at 0.5 to 2 times of MIC measured after 2 hrs by time-kill kinetics assay; format: functional, organism-based
Pseudomonas aeruginosa [30] = assay: Antibacterial activity against Pseudomonas aeruginosa ATCC 27853 assessed as inhibition of bacterial growth incubated for 16 to 20 hrs by CLSI protocol based broth microdilution method; format: functional; details: time 16-20 hrs
Acinetobacter baumannii [31] = assay: Antibacterial activity against carbapenem-resistant Acinetobacter baumannii NCTC13304 infected in ICR mouse model administered intravenously with compound at 1 and 6 hrs post-infection and measured after 7 days; format: functional; details: NCTC13304, 168 h, route iv, time 7 day
[32] = Clearance in male Sprague-Dawley rat at 3 mg/kg, iv measured after 24 hrs by LC-MS/MS analysis; format: ADME, organism-based; details: in vivo
Pseudomonas aeruginosa [33] = assay: Antibacterial activity against Pseudomonas aeruginosa ATCC 27853 assessed as decrease in bacterial concentration at 0.5 to 2 times of MIC measured after 1 hrs by time-kill kinetics assay; format: functional, organism-based
Pseudomonas aeruginosa [34] = assay: Antibacterial activity against carbapenem-resistant Pseudomonas aeruginosa clinical isolate ets85 assessed as inhibition of bacterial growth incubated for 24 hrs by CLSI protocol based broth microdilution method; format: functional
[35] = Protein binding in human plasma assessed as unbound fraction at 0.2 uM incubated for 6 hrs by LC-MS/MS analysis; format: ADME, cell-free

CC(C)CCCCC(=O)N[C@@H](CCN)C(=O)N[C@H](C(=O)N[C@@H](CN)C(=O)N[C@H]1CCNC(=O)[C@H]([C@@H](C)O)NC(=O)[C@H](CCN)NC(=O)[C@H](CCN)NC(=O)[C@H]([C@@H](C)O)NC(=O)[C@@H](Cc2ccccc2)NC(=O)[C@H](CCN)NC1=O)[C@@H](C)O ({Heptanoyl(6-Me)}-[Dab]T[Dap][Dab][Dab][dF]T[Dab][Dab]T; lactam 4-C)
MRT [1]: 1.17 h
MIC (Pseudomonas aeruginosa [2]): 0.5 µg/mL (≈ 0.43 µM)
Activity [3]: Non-toxic
MIC (Klebsiella pneumoniae [4]): 0.5 µg/mL (≈ 0.43 µM)
MIC (Pseudomonas aeruginosa [5]): 0.125 µg/mL (≈ 0.107 µM)
MIC (Acinetobacter baumannii [6]): 0.5 µg/mL (≈ 0.43 µM)
MIC (Pseudomonas aeruginosa [7]): 32 µg/mL
MIC (Pseudomonas aeruginosa [8]): 1 µg/mL (≈ 0.86 µM)
MIC (Escherichia coli [9]): < 0.06 µg/mL
MIC (Klebsiella pneumoniae [10]): 0.25 µg/mL (≈ 0.215 µM)
MIC (Pseudomonas aeruginosa [11]): 1 µg/mL (≈ 0.86 µM)
ED50 (Pseudomonas aeruginosa [12]): 6.38 mg/kg
MIC (Pseudomonas aeruginosa [13]): 2 µg/mL (≈ 1.72 µM)
C0 at 24 h [14]: 9810 ng/mL
MIC (Pseudomonas aeruginosa [15]): 1 µg/mL (≈ 0.86 µM)
ED50 (Klebsiella pneumoniae [16]): 0.32 mg/kg
survival at 4 mg/kg (Escherichia coli [17]): 100%
MIC (Pseudomonas aeruginosa [18]): 16 µg/mL
MIC (Escherichia coli [19]): ≤ 0.03 µg/mL
MIC (Pseudomonas aeruginosa [20]): 1 µg/mL (≈ 0.86 µM)
Activity (Pseudomonas aeruginosa [21]): Below limit of detection
MIC (Klebsiella pneumoniae [22]): 0.5 µg/mL (≈ 0.43 µM)
MIC (Acinetobacter baumannii [23]): < 0.06 µg/mL
MIC (Escherichia coli [24]): < 0.06 µg/mL
MIC (Klebsiella pneumoniae [25]): 0.25 µg/mL (≈ 0.215 µM)
MIC (Pseudomonas aeruginosa [26]): 0.5 µg/mL (≈ 0.43 µM)
MIC (Klebsiella pneumoniae [27]): ≤ 0.03 µg/mL
MIC (Klebsiella pneumoniae [28]): 0.5 µg/mL (≈ 0.43 µM)
Activity (Pseudomonas aeruginosa [29]): inactive
MIC (Pseudomonas aeruginosa [30]): 0.125 µg/mL (≈ 0.107 µM)
ED50 (Acinetobacter baumannii [31]): 0.83 mg/kg
clearance [32]: 4.16 mL/min/kg
Activity (Pseudomonas aeruginosa [33]): Active
MIC (Pseudomonas aeruginosa [34]): 0.5 µg/mL (≈ 0.43 µM)
fraction unbound at 6 h, 0.2 µM [35]: 0.232
